According to the NIST ThermoML archive (doi:10.1016/j.tca.2013.08.031):
Values joined by “and” are separate entries in the source; they are usually repeats but may differ in a detail not shown here. Equal values may be shown once.

Assay: molar heat capacity at constant volume
Conditions: Fluid (supercritical or subcritical phases), Vacuum adiabatic calorimetry

CCC(C)O (stereo unspecified) [butan-2-ol]
Conditions	molar heat capacity at constant volume
375.31 K, Mass density=735.98 kg/m3	219.47 J/K/mol
375.53 K, Mass density=735.98 kg/m3	217.99 J/K/mol
375.75 K, Mass density=735.98 kg/m3	218.29 J/K/mol
375.97 K, Mass density=735.98 kg/m3	219.25 J/K/mol
376.19 K, Mass density=735.98 kg/m3	217.99 J/K/mol
376.42 K, Mass density=735.98 kg/m3	219.47 J/K/mol
376.64 K, Mass density=735.98 kg/m3	218.29 J/K/mol
376.86 K, Mass density=735.98 kg/m3	219.47 J/K/mol
377.08 K, Mass density=735.98 kg/m3	217.77 J/K/mol
377.3 K, Mass density=735.98 kg/m3	219.55 J/K/mol
377.52 K, Mass density=735.98 kg/m3	219.33 J/K/mol
407.02 K, Mass density=683.53 kg/m3	273.88 J/K/mol
407.23 K, Mass density=683.53 kg/m3	278.47 J/K/mol
407.44 K, Mass density=683.53 kg/m3	275.51 J/K/mol
407.65 K, Mass density=683.53 kg/m3	274.18 J/K/mol
407.86 K, Mass density=683.53 kg/m3	273.95 J/K/mol
408.07 K, Mass density=683.53 kg/m3	279.22 J/K/mol
408.28 K, Mass density=683.53 kg/m3	277.29 J/K/mol
408.49 K, Mass density=683.53 kg/m3	260.39 J/K/mol
408.7 K, Mass density=683.53 kg/m3	246.01 J/K/mol
408.91 K, Mass density=683.53 kg/m3	240.23 J/K/mol
409.12 K, Mass density=683.53 kg/m3	236.6 J/K/mol
409.33 K, Mass density=683.53 kg/m3	234.08 J/K/mol
409.54 K, Mass density=683.53 kg/m3	232.22 J/K/mol
409.75 K, Mass density=683.53 kg/m3	224.59 J/K/mol
409.96 K, Mass density=683.53 kg/m3	223.4 J/K/mol
410.17 K, Mass density=683.53 kg/m3	224.22 J/K/mol
410.38 K, Mass density=683.53 kg/m3	222.66 J/K/mol
413.11 K, Mass density=648.53 kg/m3	272.62 J/K/mol
413.31 K, Mass density=648.53 kg/m3	273.21 J/K/mol
413.52 K, Mass density=648.53 kg/m3	273.66 J/K/mol
413.73 K, Mass density=648.53 kg/m3	273.51 J/K/mol
413.94 K, Mass density=648.53 kg/m3	272.62 J/K/mol
414.15 K, Mass density=648.53 kg/m3	272.84 J/K/mol
414.78 K, Mass density=683.53 kg/m3	226.66 J/K/mol
414.99 K, Mass density=683.53 kg/m3	226.89 J/K/mol
415.19 K, Mass density=683.53 kg/m3	227.55 J/K/mol and 227.85 J/K/mol
419.77 K, Mass density=683.53 kg/m3	228.67 J/K/mol
419.97 K, Mass density=683.53 kg/m3	227.55 J/K/mol
420.6 K, Mass density=683.53 kg/m3	230.59 J/K/mol
421.42 K, Mass density=683.53 kg/m3	231.85 J/K/mol
421.63 K, Mass density=683.53 kg/m3	230 J/K/mol
422.25 K, Mass density=683.53 kg/m3	230.81 J/K/mol
422.46 K, Mass density=683.53 kg/m3	231.11 J/K/mol
422.66 K, Mass density=683.53 kg/m3	231.85 J/K/mol
422.87 K, Mass density=683.53 kg/m3	231.33 J/K/mol
423.08 K, Mass density=683.53 kg/m3	231.41 J/K/mol
423.28 K, Mass density=683.53 kg/m3	230.81 J/K/mol
423.49 K, Mass density=683.53 kg/m3	231.48 J/K/mol
423.69 K, Mass density=683.53 kg/m3	231.93 J/K/mol
424.31 K, Mass density=683.53 kg/m3	231.11 J/K/mol
424.52 K, Mass density=683.53 kg/m3	230.52 J/K/mol
424.72 K, Mass density=683.53 kg/m3	230.81 J/K/mol
424.93 K, Mass density=683.53 kg/m3	230.44 J/K/mol
425.14 K, Mass density=683.53 kg/m3	231.33 J/K/mol
425.75 K, Mass density=683.53 kg/m3	231.19 J/K/mol
425.96 K, Mass density=683.53 kg/m3	230.89 J/K/mol and 228.44 J/K/mol
426.16 K, Mass density=683.53 kg/m3	227.48 J/K/mol
426.37 K, Mass density=683.53 kg/m3	226.74 J/K/mol
426.58 K, Mass density=683.53 kg/m3	227.41 J/K/mol
426.78 K, Mass density=683.53 kg/m3	227.03 J/K/mol
426.99 K, Mass density=683.53 kg/m3	227.48 J/K/mol
431.29 K, Mass density=648.53 kg/m3	278.03 J/K/mol
431.49 K, Mass density=648.53 kg/m3	279.14 J/K/mol
431.7 K, Mass density=648.53 kg/m3	277.66 J/K/mol
431.9 K, Mass density=648.53 kg/m3	277.88 J/K/mol
432.31 K, Mass density=648.53 kg/m3	278.77 J/K/mol
432.51 K, Mass density=648.53 kg/m3	277.14 J/K/mol
432.72 K, Mass density=648.53 kg/m3	277.44 J/K/mol
432.92 K, Mass density=648.53 kg/m3	279.22 J/K/mol
432.92 K, Mass density=683.53 kg/m3	227.18 J/K/mol
433.12 K, Mass density=648.53 kg/m3	278.55 J/K/mol
433.12 K, Mass density=683.53 kg/m3	228 J/K/mol
433.33 K, Mass density=648.53 kg/m3	272.99 J/K/mol
433.33 K, Mass density=683.53 kg/m3	227.63 J/K/mol
433.53 K, Mass density=648.53 kg/m3	225.03 J/K/mol
433.53 K, Mass density=683.53 kg/m3	227.78 J/K/mol
433.73 K, Mass density=648.53 kg/m3	224.81 J/K/mol
433.73 K, Mass density=683.53 kg/m3	228.29 J/K/mol
433.94 K, Mass density=648.53 kg/m3	222.29 J/K/mol
434.14 K, Mass density=648.53 kg/m3	223.48 J/K/mol
434.55 K, Mass density=648.53 kg/m3	221.92 J/K/mol
434.75 K, Mass density=648.53 kg/m3	221.25 J/K/mol
434.96 K, Mass density=648.53 kg/m3	222.96 J/K/mol
435.16 K, Mass density=648.53 kg/m3	222.74 J/K/mol
435.36 K, Mass density=648.53 kg/m3	222.88 J/K/mol
449.87 K, Mass density=598.18 kg/m3	278.18 J/K/mol
450.07 K, Mass density=598.18 kg/m3	277.14 J/K/mol
450.27 K, Mass density=598.18 kg/m3	279.22 J/K/mol
450.47 K, Mass density=598.18 kg/m3	276.18 J/K/mol
450.66 K, Mass density=598.18 kg/m3	277.36 J/K/mol
457.62 K, Mass density=648.53 kg/m3	222.14 J/K/mol
457.82 K, Mass density=598.18 kg/m3	274.62 J/K/mol
457.82 K, Mass density=648.53 kg/m3	221.85 J/K/mol
458.02 K, Mass density=598.18 kg/m3	274.4 J/K/mol
458.02 K, Mass density=648.53 kg/m3	222.88 J/K/mol
458.22 K, Mass density=598.18 kg/m3	277.66 J/K/mol
458.22 K, Mass density=648.53 kg/m3	224.51 J/K/mol
458.41 K, Mass density=598.18 kg/m3	277.29 J/K/mol
458.41 K, Mass density=648.53 kg/m3	223.62 J/K/mol
458.61 K, Mass density=598.18 kg/m3	278.85 J/K/mol
458.81 K, Mass density=598.18 kg/m3	277.59 J/K/mol
459.01 K, Mass density=598.18 kg/m3	279.44 J/K/mol
462.16 K, Mass density=598.18 kg/m3	275.88 J/K/mol
462.36 K, Mass density=598.18 kg/m3	274.69 J/K/mol
462.56 K, Mass density=598.18 kg/m3	273.58 J/K/mol
